Assay results reported in patent US12194026B2, “Drug for treating tinnitus” (UNIVERSITY OF SOUTH FLORIDA, priority 2018, dated 2025).
“Also recorded” adds a separate entry of the source.

How the values were obtained:
CBA/CaJ mice = test: Auditory brainstem response (ABR) recordings before and after SS
Method: (§1) General Procedure. Mice underwent sequential assessment of the effect of treatment (baseline; sodium salicylate; sodium salicylate with BMS-191011). Baseline measures were acquired before sodium salicylate (SS) administration so that mice served as their own controls. Tinnitus was induced transiently by intraperitoneal (i.p.) injection of 250 mg/kg SS (concentration: 25 mg/mL 0.9% saline). SS induces tinnitus in humans, and SS-treated animals share markers of tinnitus with humans. Behavioral or neurophysiological manifestations of tinnitus were assessed 2 hours following SS injection, and were completed within 3.5 hours. Jastreboff et al. reported that after an i.p. injection of SS in rats, the maximum levels in blood serum occurred 1.5 hours later, while the maximum levels in the perilymph and spinal fluid reached maximum levels within 2-4 hours. However, behavioral manifestations of tinnitus are observed up to 48 hours following administration (cite). BMS-191011 (Sigma Aldrich) was administered i.p. (0.5 mg/kg) or topically (1 μL of 1-10 μM) at the dura over the auditory midbrain.
ABR Assays. To obtain an electrophysiological measure of auditory evoked activity in the auditory nerve and brainstem, ABR assays were performed as described previously (Longenecker and Galazyuk, 2011; Lowe and Walton, 2015), and as briefly outlined below. Animals were anesthetized with i.p. administration of ketamine (120 mg/kg) and xylazine (10 mg/kg). Respiration was monitored during testing and used to guide administration of supplemental anesthesia. Body temperature was kept constant at 37° C. using a feedback-controlled heating pad (Physitemp TCAT2-LV Controller, Clifton, NJ).
ABRs were recorded using BioSig software in a soundproof booth lined with echo-attenuating acoustic foam. ABRs were evoked by 256 tone burst stimuli. Tone bursts were 3 msec in duration (1-ms rise/fall time, alternating polarity) presented at 6, 12, 16, 20, 24, and 36 kHz at a rate of 29 per second, attenuated in 5 dB steps from 80 dB SPL to 15 dB below threshold or 5 dB SPL, whichever was lower. Threshold was determined by visual inspection as the lowest intensity level which produced a defined peak in two replicates. Peaks 1-5 (P1-5) were detected and measured in the ABR waveforms using custom designed MATLAB software.

[1] = cited from earlier work
young adult CBA/CaJ mice [2] = test: Gap pre-pulse inhibition of the acoustic startle (GPIAS), Gap-PPI, SS-induced tinnitus
Method: (§2) SS can be administrated 2 hours before measuring the behavioral manifestations of tinnitus.
(§3) Behavioral assay: The presence of tinnitus may be indicated by a failure to respond to silence embedded in sound stimuli near the tinnitus frequency. A sound pulse-evoked acoustic startle reflex (ASR) is commonly used to determine if an animal can detect silent gaps in narrow-band noise and this method appears to detect tinnitus in humans. Failure of a first sound pulse to suppress a second sound pulse-evoked startle reflex is indicative of tinnitus. This ASR assay has a similar sensitivity for changes in gap detection to a behavioral conditioning paradigm in which animals are trained to response to gaps in noise. Elevations in the ASR amplitude have been linked to the presence of hyperacusis, a disorder often comorbid with tinnitus. Thus, the assay probed possible influences of BK channel function on both tinnitus and hyperacusis.
as §1, with “BMS-191011 (Sigma Aldrich) was administered i.p. (0.5 mg/kg) or topically (1 μL of 1-10 μM) at the dura over the auditory midbrain.” left out
Modification of the ASR by stimuli placed before the SES is typically observed as a reduction in startle amplitude or pre-pulse inhibition (Hoffman and Ison, 1980; Ison and Hoffman, 1983). To probe the tinnitus percept (Longenecker and Galazyuk, 2012; Turner, 2007), Turner and colleagues used a relatively long silent gap imbedded in an ongoing narrow band noise (NBN) placed before the SES; various center frequencies of the NBN were used. The paradigm as a whole is referred to as the gap pre-pulse inhibition of the acoustic startle (GPIAS). The silent gap is demonstrably perceived; but, if the tinnitus pitch is in the region of the pitch of the ongoing NBN, the animal will presumably be impaired at detecting the gap (Turner, et al 2007). The presence of tinnitus is then indicated by a reduction in pre-pulse inhibition to the gap stimulus, or Gap-PPI, when the gap carrier pitch is near the tinnitus frequency (Turner, 2007). To perform the GPIAS assay, in this study the SES (presented at 100 dB SPL) was preceded by a 150-ms, 70-dB narrow band noise (⅓ octave) centered at 6, 12, 16, 20, or 24 kHz. During gap trials, a 50-ms silent gap was inserted 100 ms before the SES. Ten trials of each stimulus were presented to obtain the Gap PPI function.

young adult CBA/CaJ mice [3] = test: Acoustic startle reflex (ASR) amplitude, startle input-output function, salicylate (SS) tinnitus model
Method: as §2, §3
as §1, with “BMS-191011 (Sigma Aldrich) was administered i.p. (0.5 mg/kg) or topically (1 μL of 1-10 μM) at the dura over the auditory midbrain.” left out
Behavioral Assays. Behavioral assessment were performed as described previously (Longenecker and Galazyuk, 2011; Lowe and Walton, 2015), and as briefly outlined below. The animals were acclimated to the testing room by placing the home cage in the testing room 30 min prior to testing. The acoustic startle response (ASR), a transient motor response to a startle eliciting stimulus (SES), was converted to voltage by placing mice on a custom-built platform connected to piezoelectric transducers located inside a sound attenuated chamber. SESs were 20-ms Gaussian broadband noise bursts (1-ms rise/fall time), filtered at 500 Hz-40 kHz. To measure threshold and amplitude of the ASR, the intensity of the SES was varied between 55-115 dB SPL. Ten trials were run for each stimulus in order to acquire the startle input-output function.

animals = details: cited from earlier work
[4] = in vivo; cited from earlier work
IC of awake CBA/CaJ mice = test: Multi-channel neurophysiological recordings in the inferior colliculus (IC, auditory midbrain); type: in vivo, mouse
Method: IC neurophysiological recordings. Surgery and extracellular recordings were collected and analyzed by a method identical to a procedure used in a previous study. The right IC was located stereotaxically and exposed via a small (<1.0 mm) craniotomy. Prior to recording, chlorprothixene (Taractin®, 5-12 μl/g i.m.) was administered to prevent involuntary movement via inhibition of parasympathetic nerve impulses. The animal was then secured in a custom stereotaxic frame (Newport-Klinger) in a heated (34° C.) chamber lined with sound-absorbing foam (Sonex®). Multi-unit extracellular activity was recorded using vertically oriented single shank silicon acute penetrating 16-channel electrodes with an impedance ranging from 1.2 to 2.1 MΩ (Type-A, 3 mm×100 μm; NeuroNexus Technologies). Excitatory frequency response areas (eFRAs) from all active channels were acquired simultaneously using 2 to 64 kHz, 25 ms (5 ms rise/fall) tone burst stimuli presented at 0 to 80 dB SPL in 5 dB steps. A total of 2125 frequency and intensity combinations were presented pseudo-randomly five times each at a rate of 10/s. The change in the driven response due to treatment was assessed via maximum number of spikes per stimulus within the boundary of each eFRA.

BK channel = BK channel (Homo sapiens, UniProt Q12791); details: relative to Maxipost; cited from earlier work
[5] = SS 250 mg/kg i.p., 12-20 kHz stimuli
[6] = rats, after i.p. injection, Jastreboff et al.
[7] = BMS-191011 after SS, 12, 16, 20, 24 kHz tones
[8] = BMS-191011 after SS, 60 dB tones

Chain of BK channel (Q12791 whole entry, species assumed): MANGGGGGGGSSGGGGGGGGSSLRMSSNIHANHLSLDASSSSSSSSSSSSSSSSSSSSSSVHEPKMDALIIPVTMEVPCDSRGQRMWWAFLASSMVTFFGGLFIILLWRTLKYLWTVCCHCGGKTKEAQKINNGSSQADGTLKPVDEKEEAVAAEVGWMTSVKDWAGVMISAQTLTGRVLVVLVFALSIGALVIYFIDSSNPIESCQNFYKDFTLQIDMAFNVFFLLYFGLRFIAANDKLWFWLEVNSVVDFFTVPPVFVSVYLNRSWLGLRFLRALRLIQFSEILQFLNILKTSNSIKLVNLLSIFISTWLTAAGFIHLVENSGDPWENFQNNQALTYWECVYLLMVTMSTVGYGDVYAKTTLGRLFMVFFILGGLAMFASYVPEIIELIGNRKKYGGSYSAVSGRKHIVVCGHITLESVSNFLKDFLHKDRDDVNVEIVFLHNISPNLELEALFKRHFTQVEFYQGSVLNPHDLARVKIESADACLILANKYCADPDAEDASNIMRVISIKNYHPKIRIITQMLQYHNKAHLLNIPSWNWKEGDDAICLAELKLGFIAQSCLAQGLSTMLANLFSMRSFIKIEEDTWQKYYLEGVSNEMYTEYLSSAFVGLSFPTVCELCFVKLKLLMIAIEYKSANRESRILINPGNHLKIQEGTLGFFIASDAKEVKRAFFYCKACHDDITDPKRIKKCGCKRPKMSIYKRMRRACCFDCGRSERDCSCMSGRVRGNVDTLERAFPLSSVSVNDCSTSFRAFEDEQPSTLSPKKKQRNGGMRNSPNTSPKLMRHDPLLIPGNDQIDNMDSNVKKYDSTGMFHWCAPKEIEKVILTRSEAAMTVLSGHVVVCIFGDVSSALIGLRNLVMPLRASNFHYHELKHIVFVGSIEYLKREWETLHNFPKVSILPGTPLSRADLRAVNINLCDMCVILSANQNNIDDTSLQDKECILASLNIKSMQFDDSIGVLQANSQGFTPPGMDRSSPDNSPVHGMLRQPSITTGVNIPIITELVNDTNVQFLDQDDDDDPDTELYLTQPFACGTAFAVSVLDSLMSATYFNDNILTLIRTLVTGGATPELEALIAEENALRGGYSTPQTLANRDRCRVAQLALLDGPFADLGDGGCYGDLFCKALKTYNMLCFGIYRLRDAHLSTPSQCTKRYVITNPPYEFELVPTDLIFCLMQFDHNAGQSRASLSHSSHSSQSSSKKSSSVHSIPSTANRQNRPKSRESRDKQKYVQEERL

SMILES: O=C([O-])c1ccccc1O.[Na+] [SS, sodium salicylate]
- ABR P1 amplitudes relative to baseline (CBA/CaJ mice; SS 250 mg/kg i.p.): significantly reduced P1 amplitudes
- ABR P1 latencies relative to baseline (CBA/CaJ mice; SS 250 mg/kg i.p.): longer P1 latencies; also recorded: significantly delayed P1 latencies
- P2/P1 amplitude ratio relative to baseline (CBA/CaJ mice; [5]): substantially increased; also recorded: significantly increased the P2/P1 ratio
- P4/P1 amplitude ratio relative to baseline (CBA/CaJ mice; [5]): still increased; also recorded: significantly increased the P4/P1 ratio
- ABR P2 amplitude relative to baseline (CBA/CaJ mice; SS 250 mg/kg i.p., 12-20 kHz, higher intensities (60-80 dB SPL)): either increased or stayed the same; also recorded: increased P2 amplitude at 80 dB
- increase in ABR thresholds (CBA/CaJ mice; SS 250 mg/kg i.p., across the frequency spectrum): ~20 dB
- time for which behavioral manifestations of tinnitus are observed after administration ([1]; following administration): up to 48 hours
- time of maximum levels in blood serum [1, 6]: 1.5 h
- time of maximum levels in perilymph and spinal fluid [1, 6]: 2 to 4 h
- Gap-PPI relative to baseline, 12-20 kHz carrier (young adult CBA/CaJ mice [2]; SS 250 mg/kg i.p. alone): reduced Gap-PPI; also recorded: significant decrease in % Gap PPI
- Gap-PPI, 24 kHz carrier (young adult CBA/CaJ mice [2]; SS 250 mg/kg i.p. alone): did not influence Gap-PPI
- startle amplitude intensity-response function relative to baseline (young adult CBA/CaJ mice [3]; SS 250 mg/kg i.p. alone): increased the intensity-response function; also recorded: significant increase in startle amplitude

SMILES: O=c1oc(-c2ccc(C(F)(F)F)cc2)nn1Cc1cc(Cl)ccc1O [BMS-191011, 3-[(5-chloro-2-hydroxyphenyl)methyl]-5-[4-(trifluoromethyl)phenyl]-1,3,4-oxadiazol-2(3H)-one]
- effect of SS on ABR P2 amplitudes (CBA/CaJ mice; BMS-191011 after SS): did not substantively alter; also recorded: did not significantly alter the effect of SS treatment
- effect of SS on ABR P4 amplitudes (CBA/CaJ mice; BMS-191011 after SS): did not substantively alter; also recorded: did not significantly alter the effect of SS treatment
- SS-induced ABR threshold shift (CBA/CaJ mice; BMS-191011 after SS, 1 hour before ABR recordings): did not significantly alter; also recorded: not further altered
- SS-induced decrease in ABR P1 amplitudes (CBA/CaJ mice; [7]): did not significantly alter the effect of SS treatment
- SS-induced shift in ABR P1 latencies (CBA/CaJ mice; [7]): did not significantly alter; also recorded: minimally altered the effect of SS treatment
- SS-increased P2/P1 amplitude ratio (CBA/CaJ mice; [8]): did not substantively alter; also recorded: unaltered
- SS-increased P4/P1 amplitude ratio (CBA/CaJ mice; [8]): unaltered
- cardiac effects (heart rate, blood pressure) (animals; animals): without signs of negative cardiac effects
- tolerability in animals (animals; in vivo): well-tolerated
- Gap-PPI for stimuli within the tinnitus percept (young adult CBA/CaJ mice [2]; Example 1, 16 kHz region, after SS, BMS191011 i.p. 5 mg/kg): returned Gap-PPI to baseline levels
- % Gap PPI, 12-20 kHz carriers (young adult CBA/CaJ mice [2]; Example 2, BMS-191011 after SS 250 mg/kg, N=6): returned SS-suppressed Gap-PPIs to baseline levels
- Gap-PPI, 24 kHz carrier (young adult CBA/CaJ mice [2]; Example 2, BMS-191011 after SS, outside expected tinnitus range): no effect on Gap-PPI
- Gap-PPI functions, compound administered alone (young adult CBA/CaJ mice [2]; Example 2, without SS): not significantly altered from baseline
- brain availability [4]: high brain-availability
- sound-evoked activity in the IC (IC of awake CBA/CaJ mice; Example 1, control mice, local administration (topical application over the dura)): suppressed sound-evoked activity
- spontaneous activity (spontaneous spikes per 25 ms) (IC of awake CBA/CaJ mice; mice not given SS, topical 1 μL of 1-10 μM): remained unchanged; also recorded: no significant change
- reduction of sound-evoked activity (maximum number of spikes evoked by a tone) (IC of awake CBA/CaJ mice; mice not given SS, topical 1 μL of 1-10 μM, hours 2-4 after treatment): ~50%
- time after administration by which suppression of sound-evoked activity (maximal spikes per 25 ms stimulus) is significant (IC of awake CBA/CaJ mice; mice not given SS, topical at the dura, 1 μL of a 1-10 μM solution): ≤ 1 h
- affinity and specificity for the BK channel compared with Maxipost (BK channel): higher affinity and specificity
- ASR amplitude after SS treatment (young adult CBA/CaJ mice [3]; Example 1, mouse model, SS 2 hours before, BMS191011 i.p. 5 mg/kg): did not appear to return this toward baseline
- SS-induced increase in startle amplitude intensity-response function (young adult CBA/CaJ mice [3]; Example 2, BMS-191011 i.p. after SS 250 mg/kg, 1 hour before testing, N=6): did not reverse the effects of SS administration; also recorded: not significantly altered
- startle amplitudes, compound administered alone (young adult CBA/CaJ mice [3]; Example 2, without SS): did not alter startle amplitudes
